# Measurements taken from patent US6586391B1, “Method of ameliorating erectile dysfunction” (Queen's University at Kingston, priority 1996, dated 2003).
# Columns and labels:
# [1] = system: pudendal vasculature; assay: Isolated perfusion of the pudendal vasculature, perfusion pressure response; set-up: species or system rat
# Protocol: Vascular responses using the isolated perfusion of the pudendal vasculature preparation have been assessed. FIG. 3 illustrates the dose response curve to the α-adrenoceptor agonist methoxamine (MXA) alone. FIG. 4 illustrates the dose-response curve to endothelin alone.
# Male Wistar rats (400-500 g), obtained from Charles River Laboratories (Montreal, Quebec, Canada), were housed individually under conditions of a 12 h light/12 h dark cycle (temperature of 22-24° C.), and were provided with Purina Rodent Chow and tap water ad libitum for at least two days before starting any experiment.
# The rats were anaesthetized with sodium pentabarbital (60 mg/kg i.p.) and the lower abdominal aorta was exposed through a mid-line incision. The isolation of the pudendal vasculature was developed by sequential ligation of all branches of the abdominal aorta not directly supplying the pudendal vasculature. The following arteries were dissected free and ligated: iliaca, femoralis, poplitea, glutea cranial, umbilicalis, epigastria caudal, pudenda external, glutea caudal, obturatoria, circumflexa femoris lateral, circumflexa femoris medial. After heparinization (1000 U/kg), the abdominal aorta was cannulated with a smooth, blunted 19-gauge needle. The arterial catheter was placed caudad into the aorta and the vena cava was cut and vented freely through the widely open abdominal cavity. The tip of the needle was advanced down the aorta to the iliac bifurcation and sutured in place. […] The perfusate was infused for 10 min, to flush the penile vasculature of blood, before starting any experiment.
# The perfusate consisted of dextran (15%, average molecular weight: 71,400 Da, Sigma, St. Louis, Mo., U.S.A.) in Tyrode's solution (pH 7.4), which was aerated with 95% O2 and 5% CO2. The composition of the Tyrode's solution was KCI 20, CaCl2.2H2O 32.3, MgCl2.6H2O 5.1, NaH2PO4.2H2O 6.2, NaHCO3 100, glucose 100, and NaCl 800 mg per 100 mL fluid. The perfusate was held in a reservoir, and passed through a bubble trapping/mixing chamber and heating bath by an injection port located prior to the bubble trap for the introduction of pharmacological agents. An in-line peristaltic pump was used to establish flow at 0.5 mL/kg/min (Minipuls 2, Gilson Medical Elec., Inc., Middleton, Wis., U.S.A.). Added pharmacological agents, methoxamine (MXA) and sodium nitroprusside (SNP), were delivered by a syringe pump (Harvard Apparatus Infusion/Withdrawal Pump, Millis, Mass., U.S.A.). A servo-controlled heat chamber served to maintain rectal temperature at 36-38° C.
# [2] = system: Male Sprague-Dawley rats; assay: Experiment 1: cumulative vasoconstrictor blockade following acute NO synthase inhibition, MAP response; type: in vivo, rat; details: for % of range (MAP lowering as % of MAPrange) / delta MAP (peak MAP lowering): sequential cumulative blockade, mean ± S.D.
# Protocol: (§1) Male Sprague-Dawley rats (325-400 g) obtained from Charles River Laboratories (Montreal, Quebec, Canada) were housed individually under conditions of a 12 h light/12 h dark cycle, with room temperature at 22-24° C., and were provided with Purina Rodent Chow and tap water ad libitum for at least 2 days before any experiments were started.
# The surgical method was based on the technique of Thompson et at. (Hypertension 20: 809-815 (1992)). In brief, rats were anesthetized with ketamine/xylazine (70/5 mg/kg i.p.), and the descending aorta distal to the kidneys was catheterized with small bore TEFLON® tubing (0.012-in. i.d., o.d. 30 gauge, Cole-Parmer, Laval, Quebec, Canada) inserted into vinyl tubing (0.02-in. i.d., 0.060-in, o.d., 23 gauge). […] The catheters were filled with heparinized saline (10 IU/mL) and held in place by a small amount of cyanoacrylate tissue glue at the puncture site. The catheters were tunneled subcutaneously and exteriorized at the back of the neck and sutured in place. Two days after surgery, MAP could be recorded (Narco Physiograph, E&I Instruments, Houston, Tex. or MacLab Data Acquisition System, ADInstruments, Milford, Mass., U.S.A.). After connection, an equilibration period of approximately 30 min was allowed for the determination of the steady state level of MAP before any recording began. Baseline MAP was determined from mean readings over 5 min, taken from each rat at 15 min intervals for at least 1 h prior to the start of any experiment. After obtaining a baseline MAP, the cumulative/sequential vasoconstrictor blockade was started. MAP values are expressed as an average MAP over 2-3 min following the establishment of a new steady state (i.e., MAP is no longer changing).
# NOS was inhibited by a single i.p. injection of N^ω-nitro-L-arginine-methyl ester (L-NAME, Sigma, 100 mg/kg; 100 mg/mL 0.9% sterile saline solution, Baxter Corp., Toronto, Ontario, Canada). The α1-adrenoceptor antagonist prazosin® (Sigma Chemical Company, St. Louis, Mo., U.S.A.) at a dose of 1 mg/Kg (in 0.9% saline and 5% ethanol [vol/vol], total volume 1 mL/kg) was used to block the majority of the SNS induced peripheral vasoconstriction. The non-peptide AT1 receptor antagonist losartan® (Dupont-Merck, 30 mg/kg i.p.) was used to block the effects of Ang II. The V1/V2 receptor antagonist [β-mercapto-β, β-cyclopenta-methylenepropionyl, O-Et-Tyr2-Val4-Arg8]-vasopressin (AVP) (20 μg/kg/min i.v., Sigma) was utilized to block the effects of vasopressin. The effects of the endothelin vasoconstrictor system, via ETA and ETB receptors, were blocked with a commercially available endothelin antagonist PD 145065 (100 mg/kg/min i.v., bolus, donated by Parke-Davis Pharmaceuticals). Each rat in the study received all of the aforementioned vasoconstrictor antagonists (i.e., a cumulative/sequential blockade).
# The interval between administration was up to 15 min, where a new steady state MAP had been established before the blockade of the next vasoconstrictor system.
# All data are expressed as a peak MAP lowering as a mean±S.D. Comparison of means between groups at each treatment level was done using a Student's T-test with the Bonferroni correction method, where appropriate.
# [3] = system: Male Sprague-Dawley rats; assay: Experiment 2: effects of PD 145065 or losartan before or after NOS blockade on MAP; type: in vivo, rat
# Protocol: as §1
# The surgical method was based on the technique of Thompson et at. (Hypertension 20: 809-815 (1992)). […] Two days after surgery, MAP could be recorded (Narco Physiograph, E&I Instruments, Houston, Tex. or MacLab Data Acquisition System, ADInstruments, Milford, Mass., U.S.A.). […] Baseline MAP was determined from mean readings over 5 min, taken from each rat at 15 min intervals for at least 1 h prior to the start of any experiment. […] MAP values are expressed as an average MAP over 2-3 min following the establishment of a new steady state (i.e., MAP is no longer changing).
# After obtaining appropriate baseline steady-state levels of MAP, the effects of administration of losartan (30 mg/kg i.p., n=3, under 30 mg/kg i.p. pentabarbital anesthetic) or PD 145065 (10 mg/kg/min, i,v., n=6, conscious rats previously catheterized) on resting MAP and then on the L-NAME (100 mg/kg, i.p.)-induced pressor response were assessed in two ways. […]
# [4] = system: adult Wistar rats; assay: Apomorphine-induced erection model; type: in vivo, rat
# Protocol: Using the well-established apomorphine (APO)-induced erection model (apomorphine 80 μg/kg, administered subcutaneously), we counted the erections per 30 min interval in adult Wistar rats, per the protocol of Heaton, J. P. W., et al. (1991)(43). Rats were pretested with apomorphine alone to confirm and quantify normal erectile response(control Groups A and B). Rats were then treated with L-NAME (100 mg/kg, administered intraperitoneally) alone, acutely (at<1 h) and at 3 h; or the combination of ETA/B antagonist (PD 145065, 5 mg/kg/min, continuous intravenous infusion)+L-NAME.
# [5] = background statement; cited from earlier work
# [6] = L-NAME (100 mg/kg i.p.) treated group
compound,measurement,setting,value
CC[C@H](C)[C@H](NC(=O)[C@H](CC(=O)O)NC(=O)[C@H](CC(C)C)NC(=O)[C@H](Cc1c[nH]cn1)NC(=O)[C@@H]1CSSC[C@H](N)C(=O)N[C@@H](CO)C(=O)N[C@H]2CSSC[C@H](NC(=O)[C@H](CCC(=O)O)NC(=O)[C@H](CCCCN)NC(=O)[C@H](CC(=O)O)NC(=O)[C@H](CCSC)NC(=O)[C@H](CC(C)C)NC(=O)[C@H](CO)NC(=O)[C@H](CO)NC2=O)C(=O)N[C@@H](C(C)C)C(=O)N[C@@H](Cc2ccc(O)cc2)C(=O)N[C@@H](Cc2ccccc2)C(=O)N1)C(=O)N[C@H](C(=O)N[C@@H](Cc1c[nH]c2ccccc12)C(=O)O)[C@@H](C)CC [Endothelin],Δ Perfusion Pressure,"[1]; Endothelin sub-pressor alone, methoxamine 0 μg/ml, n = 4",0 mmHg
"COC(=O)[C@@H](N)CCCNC(=N)N[N+](=O)[O-] [L-NAME, N^ω-nitro-L-arginine-methyl ester]",steady state level of MAP,"[2]; L-NAME-treated animals, before vasoconstrictor blockade",108±9 mmHg
same,experimentally induced pressure increase as a result of NOS inhibition,[2]; rats,30-40%
same,delta MAP response 20 min after L-NAME,"[3]; saline pre-treatment group, L-NAME 100 mg/kg i.p.",40±8 mmHg
same,mean number of erections per 30 min interval,"[4]; L-NAME 100 mg/kg i.p. alone, at 3 h, apomorphine-induced",3.7 ± 1.38
CN1CCc2cccc3c2[C@H]1Cc1ccc(O)c(O)c1-3 [apomorphine],mean number of erections per 30 min interval,"[4]; Group-A (control): apomorphine 80 μg/kg s.c. alone, mean ± S.D.",3.0 ± 1.31
same,mean number of erections per 30 min interval,"[4]; Group-B (control): apomorphine 80 μg/kg s.c. alone, mean ± S.D.",2.5 ± 0.58
CCCCc1nc(Cl)c(CO)n1Cc1ccc(-c2ccccc2-c2nn[nH]n2)cc1 [losartan],% of range (MAP lowering as % of MAPrange),[2]; [6],24 ± 12%
same,delta MAP (peak MAP lowering),[2]; [6],25 ± 13 mmHg
same,% of range (MAP lowering as % of MAPrange),[2]; saline control group,27 ± 8%
same,delta MAP (peak MAP lowering),[2]; saline control group,20 ± 6 mmHg
same,level of MAP after treatment,"[3]; losartan 30 mg/kg i.p., pentabarbital anesthetic, baseline 100±15 mmHg",78±21 mmHg
COc1ccc(OC)c(C(O)C(C)N)c1 (stereo not drawn) [methoxamine],Δ Perfusion Pressure,"[1]; Control, methoxamine 0.1 μg/ml, n = 6",0 mmHg
same,Δ Perfusion Pressure,"[1]; Control, methoxamine 0.25 μg/ml, n = 6",0 mmHg
same,Δ Perfusion Pressure,"[1]; Control, methoxamine 0.5 μg/ml, n = 6",0 mmHg
same,Δ Perfusion Pressure,"[1]; Control, methoxamine 1.0 μg/ml, n = 6",4 ± 1 mmHg
same,Δ Perfusion Pressure,"[1]; Control, methoxamine 2.0 μg/ml, n = 6",11 ± 2 mmHg
same,Δ Perfusion Pressure,"[1]; Control, methoxamine 4.0 μg/ml, n = 6",36 ± 11 mmHg
same,Δ Perfusion Pressure,"[1]; Control, methoxamine 8.0 μg/ml, n = 6",67 ± 24 mmHg
same,Δ Perfusion Pressure,"[1]; Endothelin sub-pressor, methoxamine 0.1 μg/ml, n = 4",0 mmHg
same,Δ Perfusion Pressure,"[1]; Endothelin sub-pressor, methoxamine 0.25 μg/ml, n = 4",34 ± 2 mmHg
same,Δ Perfusion Pressure,"[1]; Endothelin sub-pressor, methoxamine 0.5 μg/ml, n = 4",93 ± 30 mmHg
same,Δ Perfusion Pressure,"[1]; Endothelin sub-pressor, methoxamine 1.0 μg/ml, n = 4",168 ± 16 mmHg
same,shift of MXA concentration-response (perfusion pressure) relationship to lower concentrations,[1]; with low sub-pressor dose of endothelin vs MXA alone,more than 10 fold
COc1cc2nc(N3CCN(C(=O)c4ccco4)CC3)nc(N)c2cc1OC [prazosin],% of range (MAP lowering as % of MAPrange),[2]; [6],25 ± 10 %
same,delta MAP (peak MAP lowering),[2]; [6],27 ± 14 mmHg
same,% of range (MAP lowering as % of MAPrange),[2]; saline control group,48 ± 8%
same,delta MAP (peak MAP lowering),[2]; saline control group,36 ± 6 mmHg
"ET-1: endothelin-1, vasoconstrictor peptide",potency as a vasoconstrictor relative to Ang II or catecholamines,[5],approximately 100 times
"[β-mercapto-β, β-cyclopenta-methylenepropionyl, O-Et-Tyr2-Val4-Arg8]-vasopressin [(O-ET)VAVP]",% of range (MAP lowering as % of MAPrange),[2]; [6],15 ± 9 %
same,delta MAP (peak MAP lowering),[2]; [6],19 ± 13 mmHg
same,% of range (MAP lowering as % of MAPrange),[2]; saline control group,37 ± 15%
same,delta MAP (peak MAP lowering),[2]; saline control group,21 ± 11 mmHg
